Key:
[1] = tested on: red blood cell (RBC) membranes; conditions: 0.03 mg/mL Ybt or 50 mg/mL Ybt-XAD beads in PBS, 37° C.
Experimental: To assess potential disruption of red blood cell (RBC) membranes by Ybt samples, a hemolysis assay was modified from a protocol previously described (Jones et al. 2014. Proc Natl Acad Sci USA 111:12360-12365). Briefly, a 5% RBC solution was prepared by washing sheep blood (HemoStat Laboratories) with PBS until the supernatant became clear. Next, 100 μL of purified 5% RBC solution was incubated with 900 μL of 0.03 mg/mL crude extract Ybt samples (or controls) or 50 mg/mL Ybt-complexed XAD beads (or controls) in PBS over time at 37° C. Triton-X 100 (1% solution) was used to construct a blood lysis standard curve by altering the amount of blood added to each respective sample. For example, for 50 and 100% lysis, 50 and 100 μL of purified 5% RBC solution was mixed with 1% Triton-X (to 1 mL). PBS was used to generate negative controls. Samples were centrifuged and hemolysis quantified by measuring supernatant at 541 nm and comparing to the % blood lysis standard curve.

[2] = pH 2 (10 mM HCl)
Experimental: Based upon the pH removal profiles for Ybt-XAD, the column was tested for regeneration (FIG. 27). […] To select the degree of pH reduction, the Ybt compound was tested for degradation over log-fold differences in HCl concentrations (FIG. 31).

[3] = Rust removal experiments (1,10-phenanthroline assay)
Experimental: Rust Removal Experiments. A rusted carbon steel tube was machine cut into U-shaped pieces (through the University at Buffalo School of Engineering and Applied Sciences Engineering Machine Shop) and each piece, after cleaning with acetone and rinsing with DI water, immersed in 10 mL Millipore water. Samples were then mixed with 250 μL of methanol or final extracts (about 0.2 mg of Ybt) derived from the larger-scale negative control or Ybt production cultures. Samples were then allowed to incubate at 30° C. with shaking for 2 hours.
Rust removal was quantified through a modification of the 1,10-phenanthroline assay to enable detection using a 96-well plate format. To each well, 40 μL of 0.3% (wt/vol) 1,10-phenanthroline, 40 μL of 1% (wt/vol) hydroxylamine hydrochloride, and 40 μL of 0.1 M ammonium acetate were mixed. […] Absorbance was measured using a microplate reader at a wavelength of 510 nm with concentration measurements determined from a calibration curve of Fe^3+ (Sigma-Aldrich).
To assess total rust removal, metal samples recovered after incubation were washed with water and immersed in a solution of 1% (wt/vol) oxalic acid for 30 minute to remove the remaining rust on the metal surface. Upon quantifying the amount of Fe^3+ removed using the 96-well plate method introduced above, percent rust removal was calculated using the following equation: […]

[4] = Gold-binding assay (LC-MS); conditions: 1 mM Au(III), crude extract 2-5 μM, 2 hours at 22° C.
Experimental: Gold-binding Assay To test Ybt or analog gold binding capability, HAuCl4 was used to generate a solution of 1 mM Au(III) in de-ionized water. To this solution, crude extract of Ybt or analog (from samples prepared without FeCl3 addition) was added at a final concentration of 2-5 μM. After incubation for 2 hours at 22° C., the solution was analyzed by LC-MS.

[5] = tested on: RAW264.7 cells
Experimental: Biological Interaction Assays. Cytotoxicity resulting from Ybt samples was determined by the 3-(4, 5-dimethylthiazol-2-yl)-diphenyltetrazolium bromide (MTT) colorimetric assay. Three distinct cell lines (RAW264.7 [macrophage; provided by Dr. Terry Connell, Department of Microbiology and Immunology, University at Buffalo], HeLa [epithelial; provided by Dr. Stelios Andreadis, Department of Chemical and Biological Engineering, University of Buffalo], and NIH3T3 [fibroblast; ATCC]) were cultured in T75 flasks at 37° C./5% CO2. RAW264.7 cells were maintained in medium prepared as follows: 50 mL of FBS (heat inactivated), 5 mL of 100 mM MEM sodium pyruvate, 5 mL of 1 M HEPES buffer, 5 mL of penicillin/streptomycin solution, and 1.25 g of D-(+)-glucose added to 500 mL RPMI-1640 and filter sterilized. HeLa and NIH3T3 cells were maintained in Dulbecco's Modified Eagle Medium (DMEM; Gibco BRL, Grand Island, N.Y.) supplemented with 10% (v/v) FBS (GIBCO) and 1% (v/v) Antibiotic-Antimycotic (A/A; Gibco). […]

[6] = Copper removal experiments with Ybt-modified XAD beads (Zincon assay); conditions: fresh beads in three successive applications
Experimental: (§1) Copper Removal Experiments. Copper and zinc removal assessment was completed using the Zincon assay (Sabel et al. 2010. Anal Biochem 397:218-226). Briefly, 40 μL samples (diluted if necessary to keep concentrations less than 4 ppm) were added to 200 μL of borate buffer (65.8 mM; pH=9), and the assay was initiated by adding 10 μL of Zincon solution (1.6 mM). After a five-minute incubation at 20° C., absorbance at 610 nm was measured. Standard curves for Zn and Cu were made using pure salts (Sigma-Aldrich) to allow quantification. The initial measurement provides total metal concentration (zinc and copper together) while the second measurement allows determination of the copper concentration. By subtracting the second reading from the first, zinc concentration is determined. […]
(§2) To test copper removal, 800 μL of copper solution was added to 40 mg of Ybt-modified XAD beads (or controls) and incubated at 30° C. with shaking (for sheep blood and 50% FBS RPMI samples, this temperature was 22° C.). […] The copper content of the original mixture solution and the liquid resulting from the bead washing steps was measured using the Zincon assay described above. […] The removal ability was calculated using the following equation: […]

[7] = Packed-bed removal from zinc and copper solutions; conditions: pH 6.5
Experimental: Copper removal experiments: To test copper removal, 10 grams of each resin (XAD, Chelex 100, and Ybt-XAD) were packed into a 2.5×10 cm glass chromatography column (Bio-Rad). The column was equilibrated with 10 bed volumes of Millipore water before loading the metal solution. The metal solution (˜5 ppm zinc and ˜1 ppm copper; pH adjusted with dilute HCl or NaOH) was pumped (LMI Milton Roy dosing pump) into the column with a continuous flow rate of 1 L/hr. Samples were collected every 30 min. The percent copper or zinc removal was calculated using the following formula: [(Ci−Cf)/Ci]×100, where Ci is the initial copper (or zinc) concentration and Cf is the final concentration. Average selectivity was defined as the ratio of average copper removal (%) to the average zinc removal (%) over the course of the experiment.

[8] = Zinc removal with Ybt-modified XAD beads (Zincon assay); conditions: FIG. 14D
Experimental: as §1, §2

With `CC(C)(C1=N[C@@](C)(C(=O)O)CS1)[C@H](O)[C@@H]1CSC([C@H]2CSC(c3ccccc3O)=N2)N1` (stereo partly drawn) [Ybt, yersiniabactin] the RBC hemolysis [1] was “minimal concerns”, the “stability (degradation over time)” value [2] was “stability” and the “rust removed, of total rust” value ([3]; about 0.2 mg of Ybt, 30° C., 2 hours) was “about 20%”. The “rust removed relative to the commercial control” value ([3]; relative to commercial product Rust-Oleum) was “about 40%”, the “gold binding / complex formation” value [4] was “lack of complexation” and the “immunogenicity via NO production from macrophage cells” value [5] was “minimal concerns”. The “copper removal after repeated extractions” value [6] was roughly 100%, the “zinc binding in fixed bed” value [7] was “not observed” and the zinc removal capability [8] was “no discernible capability to remove zinc”.
